Reference: ChEMBL document CHEMBL5537181 (J Med Chem, 2024)
Active and inactive are the calls of the source. The calls are words filed in the database; no cut-off is given here.

Tested on: Rattus norvegicus
Test: Analgesic activity in Chronic constriction injury rat model assessed as decrease in hyperalgesia at 0.25 to 25 microg/kg,IM administrated every 2 hrs for 14 days
Type: functional, organism-based
Details: dose 0.25-25 µg/kg, time 14.0 day

CC[C@H](C)[C@H](NC(=O)[C@H](CCCNC(=N)N)NC(=O)[C@H](CCCNC(=N)N)NC(=O)[C@H](Cc1ccc(O)cc1)NC(=O)[C@H](CCCNC(=N)N)NC(=O)[C@H](CCCNC(=N)N)NC(=O)[C@H](CCCNC(=N)N)NC(=O)[C@H](CCCNC(=N)N)NC(=O)[C@H](CC(=O)O)NC(=O)[C@H](Cc1ccc(O)cc1)NC(=O)[C@@H]1CCCN1C(=O)[C@H](CO)NC(=O)[C@H](CCCNC(=N)N)NC(=O)[C@H](Cc1ccc(O)cc1)NC(=O)[C@H](CCCNC(=N)N)NC(=O)CN)C(=O)N[C@H](C(=O)N[C@@H](CC(=O)O)C(N)=O)[C@@H](C)O
Activity: Active
